According to ChEMBL document CHEMBL4477189, “Effects of 2,3-Dehydrosilybin and Its Galloyl Ester and Methyl Ether Derivatives on Human Umbilical Vein Endothelial Cells” (J Nat Prod, 2016):
Calls of active or inactive are those of the source. The calls are words filed in the database; no cut-off is given here.

Columns and labels:
HUVEC [1] = test: Antiproliferative activity in HUVEC assessed as reduction in cell viability measured after 72 hrs by MTT assay; format: functional, cell-based; conditions: Homo sapiens
HUVEC [2] = test: Antimigratory activity in HUVEC assessed as inhibition of cell migration at 10 uM measured after 16 to 20 hrs by crystal violet staining-based microscopic analysis; format: functional; conditions: Homo sapiens
HUVEC [3] = test: Cytotoxicity in HUVEC assessed as reduction in cell viability measured after 24 hrs by MTT assay; format: cell-based; conditions: Homo sapiens
HUVEC [4] = test: Antimigratory activity in HUVEC assessed as inhibition of cell migration measured after 16 to 20 hrs by crystal violet staining-based microscopic analysis; format: functional; conditions: Homo sapiens
[5] = Antiproliferative activity against bFGF-stimulated BBEC by Coulter particle counter method; format: functional, Bos taurus
RF/6A [6] = test: Antimigratory activity in rhesus monkey RF/6A cells measured after 24 hrs by wound assay; format: functional, cell-based; conditions: Macaca mulatta
RF/6A [7] = test: Antiproliferative activity in rhesus monkey RF/6A cells measured after 24 to 72 hrs by MTT assay; format: functional, cell-based; conditions: Macaca mulatta

With `COc1cc(O)c2c(=O)c(OC)c(-c3ccc4c(c3)OC(c3ccc(O)c(OC)c3)C(CO)O4)oc2c1` (stereo not drawn) the IC50 (HUVEC [1]) was 8.3 µM, the inhibition (HUVEC [2]) was “Active” and the IC50 (HUVEC [3]) was 43.1 µM. It also gave an IC50 (HUVEC [4]) of 49.9 µM.

In the case of `COCC1Oc2ccc(-c3oc4cc(O)cc(O)c4c(=O)c3O)cc2OC1c1ccc(O)c(OC)c1` (stereo not drawn), the IC50 (HUVEC [1]) is reported as 5.3 µM, the inhibition (HUVEC [2]) is reported as “Active” and the IC50 (HUVEC [3]) is reported as 28.3 µM. It also gave an IC50 (HUVEC [4]) of 10.5 µM.

With `COc1cc(C2Oc3cc(-c4oc5cc(O)cc(O)c5c(=O)c4OC(=O)c4cc(O)c(O)c(O)c4)ccc3OC2CO)ccc1O` (stereo not drawn) the IC50 (HUVEC [1]) was 11.7 µM, the inhibition (HUVEC [2]) was “Active” and the IC50 (HUVEC [3]) was 18.9 µM. The IC50 (HUVEC [4]) was 36.8 µM.

In the case of `COc1cc(C2Oc3cc(-c4oc5cc(O)cc(O)c5c(=O)c4OC)ccc3OC2CO)ccc1O` (stereo not drawn), the IC50 (HUVEC [1]) is reported as 4.9 µM, the inhibition (HUVEC [2]) is reported as “Active” and the IC50 (HUVEC [3]) is reported as 22.5 µM. It also gave an IC50 (HUVEC [4]) of 11.3 µM.

With `COc1cc(C2Oc3cc(-c4oc5cc(OC(=O)c6cc(O)c(O)c(O)c6)cc(O)c5c(=O)c4O)ccc3OC2CO)ccc1O` (stereo not drawn) the IC50 (HUVEC [1]) was 1.6 µM, the inhibition (HUVEC [2]) was “Active” and the IC50 (HUVEC [3]) was 3.4 µM. For the same compound, the IC50 (HUVEC [4]) was 4.7 µM and the inhibition (HUVEC [4]) was “Dose-dependent effect”.

With `O=c1cc(-c2ccc(O)c(O)c2)oc2cc(OC3O[C@H](CO)[C@@H](O)[C@H](O)[C@H]3O)cc(O)c12` (stereo partly drawn) the IC50 [5] was 18 µM.

For `COc1cc(O)c2c(=O)c(O)c(-c3ccc4c(c3)OC(c3ccc(O)c(OC)c3)C(CO)O4)oc2c1` (stereo not drawn), the IC50 (HUVEC [1]) was 6.7 µM, the inhibition (HUVEC [2]) was “Active” and the IC50 (HUVEC [3]) was 15.2 µM. The IC50 (HUVEC [4]) was 10.4 µM.

With `COc1cc(C2Oc3cc(-c4oc5cc(O)cc(OC)c5c(=O)c4O)ccc3OC2CO)ccc1O` (stereo not drawn) the IC50 (HUVEC [1]) was 6.2 µM, the inhibition (HUVEC [2]) was “Active” and the IC50 (HUVEC [3]) was 62.4 µM. The IC50 (HUVEC [4]) was 11.1 µM.

With `COc1cc(C2Oc3cc(-c4oc5cc(O)cc(O)c5c(=O)c4O)ccc3OC2CO)ccc1O` (stereo not drawn) [DEHYDROSILYLBIN] the IC50 (HUVEC [1]) was 5.4 µM, the inhibition (HUVEC [2]) was “Active” and the IC50 (HUVEC [3]) was 12 µM. It also gave an IC50 (HUVEC [4]) of 12.2 µM.

Work on `O=c1cc(-c2ccc(O)c(O)c2)oc2cc(O)cc(O)c12` [LUTEOLIN] yielded an IC50 [5] of 1.9 µM.

Compound `O=c1c(O)c(-c2ccc(O)c(O)c2)oc2cc(O)cc(O)c12` [QUERCETIN] has an IC50 (RF/6A [6]) of 40 µM, an IC50 (RF/6A [7]) of 70 µM and an IC50 [5] of 5.4 µM.
